# Results from patent US10532069B2, “Compositions and methods for treating joints” (DePuy Synthes Products, Inc., priority 2015, dated 2020).
# How the values were obtained:
# [1] = test system: Complete Freund's Adjuvant (CFA) induced joint inflammation in rat; assay: CFA model of inflammatory arthritis, study CFA #2 (100 uL CFA); assay type: in vivo; settings: daily oral, high dose 30 mg/kg, FIG. 8
# Procedure: In CFA #2 the same protocol was followed except for the lower dose of CFA which was intended to induce a less severe inflammatory reaction and subsequently milder pain. Also, daily oral ibuprofen (labeled as “IBR” in FIG. 8) was used as a positive control rather than diclofenac, at doses of 10 mg/kg and high 30 mg/kg. These doses were equivalent to human daily doses of […] and 3600 mg, respectively. Both are considered high doses of ibuprofen that are generally not recommended for long term use.
# [2] = test system: Complete Freund's Adjuvant (CFA) induced joint inflammation in rat; settings: CFA #1
# Procedure: Because OA is now known to have an inflammatory component, an animal model that mimics inflammatory arthritis was used to test HA/GlcN/CS formulations. Complete Freund's Adjuvant (CFA) comprises an emulsion of killed bacterial cells that is injected systemically or into the joint of a rat to induce severe inflammation. Two CFA studies were conducted, the first using a 200 uL injection of CFA to induce inflammation (CFA #1), the second using an injection volume of 100 uL (CFA #2). Test articles were prepared using the liquid/liquid formulation method described above.
# Von Frey filaments were used to assess mechano-allodynia (pain sensation from a normally non-painful stimulus) on days 6, 7, 8, 17, and 21 following CFA injection. […] This protocol was used to test the 18.0 and 1.8 mg/mL HA/GlcN/CS formulations. As with the rat MMT model, the cumulative improvements in pain relief were calculated. […] In this figure, the 1.8 mg/mL HA/GlcN/CS group and the 18 mg/mL HA/GlcN/CS group are labeled as “G/C 1.8 mg/ml” and “G/C 18 mg/ml”, respectively. The untreated group is labeled as “Untx” in this figure.
# [3] = test system: PGPS (peptidoglycan polysaccharide) reactivation arthritis in male Lewis rats; assay: PGPS model of episodic inflammatory arthritis: weight bearing and gait analysis; assay type: in vivo; settings: PGPS second reactivation (after repriming)
# Procedure: The PGPS model of arthritis is used to simulate episodic inflammation of the joint. PGPS (peptidoglycan polysaccharide) is a streptococcal cell wall formulation that is injected directly into the joint of the test subject, resulting in a painful inflammatory response. Unlike the continuous FCA response, the inflammatory pain from PGPS is transient, typically lasting only a few days. Following this “priming” injection to the joint, subsequent systemic injections result in inflammatory flares in the previously injected joint for a period of several days. The “reactivation” inflammatory flares can be repeated multiple times, with the inflammatory pain generally decreasing with subsequent reactivation cycles. Alternatively, the joint can be “reprimed” following the initial reactivation, resulting in a more robust inflammatory response in subsequent reactivations.
# As with the rat MMT model, the effect of intra-articular therapies is assessed by static weight bearing measurements. […]
# In the present experiment, two reactivation cycles were induced in male Lewis rats following the initial PGPS intra-articular injection. […] Weight bearing and gait analysis scores were recorded on days 1, 4, 7, and 14 following the reactivation injection. […] Weight bearing and gait analysis scores were recorded on days 1, 2, 3, and 4 following reactivation. […]
structure (smiles),measurement,setting,value
CC(C)Cc1ccc(C(C)C(=O)O)cc1 (centres unmarked) [ibuprofen],pain relief as cumulative improvement in weight bearing deficiency,[1],significant improvement in pain relief
O=C(O)Cc1ccccc1Nc1c(Cl)cccc1Cl [diclofenac],safety (premature deaths of animals),[2],several animals in the diclofenac group died prematurely
same,AUC analysis of pain relief compared to HA alone,"[2]; comparison with HA alone, FIG. 7",statistically superior to HA alone
same,AUC analysis of pain relief (Von Frey mechano-allodynia),"[2]; single IA injection on day 5 after CFA (diclofenac daily oral), days 6, 7, 8, 17, 21, FIG. 7",significant improvement in pain relief
C[C@]12C=CC(=O)C=C1CC[C@H]1[C@@H]3C[C@@H](O)[C@](O)(C(=O)CO)[C@@]3(C)C[C@H](O)[C@@]12F [triamcinolone],weight bearing deficit,[3],significant improvement
